US12325022B2, “Microfluidic device, system, and method for the study of organisms” (ECOLE POLYTECHNIQUE FEDERALE DE LAUSANNE (EPFL), priority 2014, dated 2025)
Entries after “also recorded” stand apart in the source; their conditions may differ.

How the values were obtained:
[1] = test system: N2 wild-type C. elegans worms and their embryos; test: on-chip 5-FU treatment of worms with monitoring of embryo development in the incubator array; assay type: in vivo; conditions: worms treated on-chip from L4 stage with 2 mM in M9 buffer at 25° C.; embryos monitored for 12 h (array pictures at 600 minutes)
Protocol: Bar graphs are expressed as mean+SEM, *** p≤0.001.
Wild-type worms were isolated in the culture chamber at the L4 larval stage and treated on-chip with 5-FU at a concentration of 2 mM, while being cultured at 25° C. towards the adult stage. Subsequently, embryos were transferred to the incubator array and monitored for 12 h.

[2] = test system: wild-type C. elegans; conditions: sigmoid fit; paralyzed worms between 30 and 40 minutes after tetramisole injection
Protocol: (§1) The aim of the experiment was to correlate the concentration of the drug with the number of paralyzed worms over time, and to trace a dose-response curve for this drug.
(§2) L1 specimens of wild-type C. elegans have been injected in the chip with the above-described protocol and fed them for 2-3 days to get adult worms. […] The wells were plugged in the inlet and sucked with a syringe from the outlet at total outflows between 100-200 nL/s for 40-80 minutes. The procedure was recorded in real-time for all the chambers at the same time by using a stereo-microscope. It was used a suitable ring-shape back-illumination to enhance the contrast and make the adult worms much lighter than the background.
(§3) Image analysis was done afterwards directly on the video recorded: the number of paralyzed worms per chamber were counted every 10 minutes from the beginning of the drug injection, and the total percentage of paralyzed worms per channel (1 channel=1 concentration) was calculated.

[3] = test system: wild-type C. elegans; test: whole plant or invertebrate; conditions: Caenorhabditis elegans, read-out: EC50 of dose-response curve (mean percentage of paralyzed worms)
Protocol: as §1, §2, §3

Row | Structure (SMILES) | development of embryos laid by treated worms [1] | Hill slope of dose-response curve (paralyzed worms) [2] | EC50 [3]
1 | O=c1[nH]cc(F)c(=O)[nH]1 [5-FU, 5-fluorouracil] | All embryos prematurely died; also recorded: blocked development |  | 
2 | c1ccc(C2CN3CCSC3=N2)cc1 (stereo not drawn) [tetramisole] |  | about 0.02 μM | ~57 µM
